Test results taken from patent US7276576B1, “Mammalian ICYP (iodocyanopindolol) receptor and its applications” (Dainippon Sumitomo Pharma Co., Ltd., priority 1996, dated 2007).
Where two headings read alike, the source gives them in different places. Blank lines part the entries; values can stand above or below the molecule they belong to.

Experiments:
[1] = target: T1, [125I]-ICYP specific binding site (SMBP, SM-11044 binding protein) in rat colon smooth muscle membranes (Rattus norvegicus, UniProt A0A8I6A822); test: [125I]-ICYP saturation and competition binding to rat colon membranes (Example 2); details: for Ki: read-out: Ki on [125I]-ICYP specific binding to rat colon membranes; for Displacement of [125I]-ICYP specific binding (in words): competition binding, no concentration stated
T1 construct: Membranes from colon smooth muscles were prepared as essentially described by Ek et al., 1986; from tissue
T1 sequence (A0A8I6A822 27-587): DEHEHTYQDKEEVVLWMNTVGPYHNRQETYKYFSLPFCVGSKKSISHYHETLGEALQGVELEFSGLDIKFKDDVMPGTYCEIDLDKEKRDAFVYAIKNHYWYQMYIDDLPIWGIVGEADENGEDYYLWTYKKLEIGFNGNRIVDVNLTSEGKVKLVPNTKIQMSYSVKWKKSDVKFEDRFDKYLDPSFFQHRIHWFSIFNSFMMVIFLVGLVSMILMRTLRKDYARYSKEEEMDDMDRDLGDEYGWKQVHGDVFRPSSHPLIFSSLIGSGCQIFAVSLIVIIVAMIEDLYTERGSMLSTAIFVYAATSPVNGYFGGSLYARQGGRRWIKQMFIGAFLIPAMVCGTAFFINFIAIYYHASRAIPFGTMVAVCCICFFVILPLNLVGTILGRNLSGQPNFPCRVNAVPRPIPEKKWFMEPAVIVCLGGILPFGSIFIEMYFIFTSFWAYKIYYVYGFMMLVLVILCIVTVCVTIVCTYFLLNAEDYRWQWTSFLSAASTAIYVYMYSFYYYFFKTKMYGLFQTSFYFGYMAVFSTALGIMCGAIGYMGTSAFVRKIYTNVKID
Experimental: Incubations were carried out at 37° C. for 30 min in a shaking water-bath incubator and terminated by addition of 4 ml of ice-cold Tris-saline followed by rapid filtration under vacuum on Whatman GF/B filter presoaked in Tris-saline containing 0.1% polyethyleneimine (pH 7.4). The filters were washed three times with 4 ml of ice-cold Tris-saline, transferred to plastic tubes and counted in a γ-counter.
Hill coefficient was calculated by linear regression using saturation experiment data. Pseudo-Hill coefficient and IC50 were determined by the computer program, InPlot™ (GraphPad Software, CA, USA).

guinea pig eosinophil = test: Leukotriene B4 induced guinea pig eosinophil chemotaxis; format: cell-based; details: for Effect of antagonist on the inhibition of eosinophil chemotaxis: inhibition by SM-11044 and BRL-35135A
[2] = system: rat colon smooth muscle segment; test: Relaxation of KCl-induced tonus in rat colon segment (organ bath); details: for IA, rat colon relaxation: relative to isoproterenol; for EC50: Rattus norvegicus, read-out: pD2, rat colon relaxation (converted)
Experimental: Rat colon segment (2 cm) was suspended in organ bath containing 10 ml modified-Tyrode solution (Sugasawa T. et al. Eur. J. Pharmacol., 1992, 216, 207-215). The Tyrode solution contained 0.5 μM atropine, 0.5 μM desmethylimipramine, 30 μM hydrocortisone, 30 μM ascorbic acid, 10 μM phentolamine and 1 μM propranolol throughout study, in order to inhibit spontaneous contraction, neuronal and extra-neuronal uptake of norepinephrine, oxidation of catecholamines, possible α, β1- and β2-AR effects, respectively.
The relaxant action of agonists was determined by measuring relaxation of KCl (100 mM)-induced tonus evoked by cumulative addition of the agonists as described previously (Sugasawa T. et al. cited above). In the case of testing the effect of cyanopindolol, it was added 5-10 min before the addition of agonist.
(§1) Agonist concentration-ratios (CR) were determined from the EC50 values of the concentration-response curves of agonists with or without cyanopindolol, according to the method of Arunlakshana et al., 1959.
(§2) The EC50 values were calculated using the computer program, InPlot™.

rat white adipocytes = test: Lipolysis in rat white adipocytes; format: cell-based; details: for IA, rat white adipocyte lipolysis: relative to isoproterenol; for EC50: Rattus norvegicus, Adipocyte, read-out: pD2, rat white adipocyte lipolysis (converted)
Experimental: White adipocytes were isolated from epididymal fat pads of male Wistar rats (190-230 g) and lipolysis was determined according to the previous report (Sugasawa T. et al. cited above). The cells were preincubated for 5 min at 37° C. in the presence of 30 μM ascorbic acid, 10 μM phentolamine and 1 μM propranolol.
Agonists were then applied and incubated for 90 min. In the case of testing the effect of cyanopindolol, it was added 5 min before the addition of agonist.
as §1, §2

[3] = target: T2, 34 kDa photoaffinity-labeled protein (SMBP) in rat colon membranes (Rattus norvegicus, UniProt A0A8I6A822); test: Photoaffinity labeling of rat colon membranes with [125I]-ICYP-diazirine; format: binding
T2 construct: Membranes from colon smooth muscles were prepared as essentially described by Ek et al., 1986; from tissue
T2 sequence (A0A8I6A822 27-587): as above
Experimental: Incubations were carried out in the presence or absence of competitor at 37° C. for 45 min in the dark in a shaking water-bath incubator and terminated by addition of 10 ml of ice-cold Tris-saline followed by a rapid centrifugation (150,000×g for 10 min at 4° C.). The membranes were irradiated with a UV lamp for 5 min with cooling by circulating water. The labeled membranes were diluted with 10 ml of ice-cold Tris-saline, centrifuged (150,000×g for 30 min at 4° C.), and the pellet was resuspended in Tris-saline and kept at −80° C.
SDS-PAGE was performed under reducing conditions essentially as described by Laemmli, 1970, using 12% polyacrylamide gels (40% T, 2.6% C). […] After electrophoresis, the gels were dried and autoradiographed on X-OMAT™ AR film (Eastman Kodak Co., NY, USA), as specified in example 1, chapter <<(preparative SDS-PAGE>>.

[4] = target: T3, SMBP in rat colon smooth muscle membranes (Rattus norvegicus, UniProt A0A8I6A822); test: [125I]-ICYP saturation binding to rat colon membranes (Example 1); details: means ± SD
T3 construct: Membranes from colon smooth muscles were prepared as essentially described by Ek et al., 1986; from tissue
T3 sequence (A0A8I6A822 27-587): as above
Experimental: Frozen rat colons (SD strains, male and female) were purchased from Pel-Freeze Biologicals (Arkansas, USA). Membranes from colon smooth muscles were prepared as essentially described by Ek et al., 1986, with the slight following modifications. The colon segment was washed in ice-cold Tris-saline (10 mM Tris/HCl, 154 mM NaCl, (pH 7.4)), cut open longitudinally and the mucosa was removed by scrubbing with a glass slide on ice-cold plastic plate. The smooth muscle preparations were homogenized with a Polytron homogenizer for 1 min. The homogenate was filtered through a gauze and centrifuged (1,500×g for 20 min at 4° C.), the supernatant was collected and centrifuged (50,000×g for 20 min at 4° C.). The pellet comprising the membranes was resuspended in Tris-saline and was stored at −80° C. until use. The protein concentration was determined by Bio-Rad protein assay kit (Bio-Rad USA).
Saturation binding studies were performed in a final volume of 200 μl of Tris-saline containing 50 μg membrane proteins and different concentrations (0.05-25 nM) of [^125I]-ICYP, in the presence of 10 μM serotonine (5-HT), 10 μM phentolamine, 20 μM (±) propranolol and 1.1 mM ascorbic-acid pH 7.4), to block possible 5-HT receptors, ARs and oxidation of catecholamines, respectively. […] The filters were washed three times with 4 ml of ice-cold Tris-saline, transferred to plastic tubes and counted in a γ-counter.

[5] = 1 nM [125I]-ICYP, 10 μM 5-HT, 10 μM phentolamine and 20 μM propranolol
[6] = 10 μM phentolamine and 1 μM propranolol, mean ± SEM
[7] = up to the concentration of 1 mM

- Pseudo-Hill coefficient [1, 5]: 1.21 ± 0.21
- Ki [1, 5]: 5.9 ± 1 µM
SMILES: CCOC(=O)COc1ccc2c(c1)C[C@@H](NC[C@H](O)c1cccc(Cl)c1)CC2 (racemic) [SR-58611A, (RS)-N-(7 carbethoxymethoxyl-1,2,3,4-tetrahydronaphth-2-yl)-2-hydroxy-2-(3 chlorophenyl) ethanamine hydro-chloride]

- Pseudo-Hill coefficient [1, 5]: 0.96 ± 0.23
- Ki [1, 5]: 29.4 ± 8.9 µM
- Displacement of [125I]-ICYP specific binding (in words) [1]: displaced the specific binding
SMILES: COC(=O)COc1ccc(OCCNCC(O)COc2ccccc2)cc1 (racemic) [ICI-198157, (RS)-4-[2-[(2-hydroxy-3-phenoxypropyl)amino]ethoxy]phenoxyacetic acid methyl ester]

- Pseudo-Hill coefficient [1, 5]: 0.85 ± 0.24
- Ki [1, 5]: 13.3 ± 2.4 µM
SMILES: C=CCc1ccccc1OCC(O)CNC(C)C (racemic) [(±)-alprenolol, alprenolol]
- Effect of antagonist on the inhibition of eosinophil chemotaxis (guinea pig eosinophil): antagonized

- Pseudo-Hill coefficient [1, 5]: 0.89 ± 0.14
- Ki [1, 5]: 28.5 µM
SMILES: Cc1ccc(OCC(O)C(C)NC(C)C)c2c1CCC2 (stereo not drawn) [ICI-118551]

- Pseudo-Hill coefficient [1, 5]: 0.77 ± 0.11
- Ki [1, 5]: 8.1 ± 1.7 µM
- Displacement of [125I]-ICYP specific binding (in words) [1]: less effective
SMILES: CC(C)NCC(O)COc1cccc2[nH]c3ccccc3c12 (racemic) [(±)-carazolol, carazolol]

- Ki [1, 5]: > 1000 µM
- Displacement of [125I]-ICYP specific binding [1, 7]: not displaced
SMILES: NCCc1ccc(O)c(O)c1 [Dopamine, dopamine]

- Pseudo-Hill coefficient [1, 5]: 0.92 ± 0.15
- Ki [1, 5]: 3.7 ± 0.4 µM
SMILES: O=C([C@H](NCCCc1ccc(F)cc1)[C@@H](O)c1ccc(O)c(O)c1)N1CCCC1 [SM-14786]

- Pseudo-Hill coefficient [1, 5]: 0.67 ± 0.13
- Ki [1, 5]: 29.3 µM
SMILES: O=C([C@@H](NCCCc1ccc(F)cc1)[C@@H](O)c1ccc(O)c(O)c1)N1CCCC1 (racemic) [SM-14010]

- Ki [1, 5]: > 100 µM
SMILES: O=C(O)COc1ccc(OCCNC[C@H](O)COc2ccccc2)cc1 [ICI-215001]

- Pseudo-Hill coefficient [1, 5]: 1.07 ± 0.15
- Ki [1, 5]: 2 µM
- Effectiveness in competition binding relative to SM-14010 ([1]; ratio of Ki, SM-14011 vs SM-14010): 15 times
SMILES: O=C([C@@H](NCCCc1ccc(F)cc1)[C@H](O)c1ccc(O)c(O)c1)N1CCCC1 (racemic) [SM-14011]

- Effect on photoaffinity-labeled bands ([3]; competitor 20 μM, 10 μM 5-HT and 10 μM phentolamine): only the 34 kDa band remained visible
SMILES: CC(C)NCC(O)COc1cccc2ccccc12 (stereo not drawn) [propranolol]
- Effect of antagonist on the inhibition of eosinophil chemotaxis (guinea pig eosinophil): unaffected

- Kd ([1]; Example 2 membranes (Wistar rats), 10 μM 5-HT, 10 μM phentolamine and 20 μM propranolol, read-out: Dissociation constant (Kd), Scatchard plot): 0.011 ± 0.00095 µM
- Kd ([4]; Example 1 membranes (SD rats), blockade of adrenergic and serotonine receptors, read-out: Dissociation constant (Kd), Scatchard plot): 0.00722 ± 7e-06 µM
SMILES: CC(C)(C)NCC(O)COc1cccc2[nH]c(C#N)c(I)c12 (single isomer, unassigned; (-)) [[^125I]-ICYP, (−)-3-[^125I] iodocyanopindolol]

- Ki [1, 5]: > 100 µM
SMILES: O=C(O)COc1ccc(OCCNCC(O)COc2ccccc2)cc1 (stereo not drawn) [ICI-201651]

Second part, the molecule before the results:

SMILES: CNC[C@H](O)c1ccc(O)c(O)c1 [(−)-epinephrine, epinephrine]
- IA, rat colon relaxation [2, 6]: 0.86 ± 0.137
- EC50 [2]: 1.2 µM
- IA, rat white adipocyte lipolysis (rat white adipocytes; [6]): 0.91 ± 0.036
- EC50 (rat white adipocytes): 6.92 µM
- Ki [1, 5]: > 1000 µM
- Displacement of [125I]-ICYP specific binding [1, 7]: not displaced

SMILES: CC(C)(C)NCC(O)COc1cccc2[nH]c(=O)[nH]c12 (stereo not drawn) [CGP-12177A]
- Ki [1, 5]: > 100 µM

SMILES: NC[C@H](O)c1ccc(O)c(O)c1 [(−)-norepinephrine, norepinephrine]
- IA, rat colon relaxation [2, 6]: 0.85 ± 0.168
- EC50 [2]: 1.41 µM
- IA, rat white adipocyte lipolysis (rat white adipocytes; [6]): 1.02 ± 0.058
- EC50 (rat white adipocytes): 3.98 µM
- Ki [1, 5]: > 1000 µM
- Displacement of [125I]-ICYP specific binding [1, 7]: not displaced

SMILES: NCCc1c[nH]c2ccc(O)cc12 [5-HT, serotonine]
- Ki [1, 5]: > 1000 µM
- Displacement of [125I]-ICYP specific binding [1, 7]: not displaced

SMILES: CC(Cc1ccc(OCC(=O)O)cc1)NCC(O)c1cccc(Cl)c1 (stereo not drawn) [BRL-37344]
- IA, rat colon relaxation [2, 6]: 1.00 ± 0.126
- EC50 ([2]; relaxation of KCl (100 mM)-induced tonus, 10 μM phentolamine and 1 μM propranolol, mean ± SEM): 0.0316 µM
- IA, rat white adipocyte lipolysis (rat white adipocytes; [6]): 0.72 ± 0.0333
- EC50 (rat white adipocytes; [6]): 0.0562 µM
- Ki [1, 5]: > 100 µM
- Displacement of [125I]-ICYP specific binding ([1]; up to the concentration of 100 μM): did not displace
- Displacement of the photoaffinity-labeled 34 kDa band ([3]; competitor 100 μM, 1.5 nM [125I]-ICYP-diazirine, 10 μM 5-HT, 10 μM phentolamine, 20 μM propranolol): not displaced
- Inhibition of leukotriene B4 induced guinea pig eosinophil chemotaxis (guinea pig eosinophil): no such effect

SMILES: CC(C)(C)NCC(O)COc1cccc2[nH]c(C#N)c([125I])c12 (single isomer, unassigned; (-)) [[^125I]-ICYP, (−)-3-[^125I] iodocyanopindolol]
- Specific binding at equilibrium levels ([1]; 1 nM [125I]-ICYP, 30 min, n=2): 82.7±1.9%
- Maximum number of binding sites (Bmax) ([1]; Example 2 membranes, 10 μM 5-HT, 10 μM phentolamine and 20 μM propranolol): 716.7±21.12 fmol/mg protein
- Hill coefficient of the saturation curve ([1]; saturation experiment, 30 min incubation): 0.99±0.03
- Maximum number of binding sites (Bmax) ([4]; Example 1 membranes): 1.13 ±0.071 pmol/mg membrane protein

SMILES: COC(=O)COc1ccc(CC(C)NCC(O)c2cccc(Cl)c2)cc1 (stereo not drawn) [BRL-35135A, (R*R*)-(+)-4-[2′-[2-hydroxy 2-(3-chlorophenyl)ethylamino]propyl]phenoxyacetic acid methyl ester]
- Pseudo-Hill coefficient [1, 5]: 0.80 ± 0.14
- Ki [1, 5]: 1.4 ± 0.1 µM
- Displacement of [125I]-ICYP specific binding (in words) [1]: displaced the specific binding
- Inhibition of leukotriene B4 induced guinea pig eosinophil chemotaxis (guinea pig eosinophil): inhibiting

SMILES: Nc1nc2c(ncn2[C@@H]2O[C@H](COP(=O)(O)OP(=O)(O)OP(=O)(O)O)[C@@H](O)[C@H]2O)c(=O)[nH]1 [GTP]
- Inhibition of [125I]-ICYP specific binding ([1]; at 300 μM, n=2): 29.8±2.7%
- Inhibition of [125I]-ICYP specific binding ([1]; at 1 mM, n=2): 98.2 ± 1.3%

SMILES: Cc1ccc(Cl)c(OCC(O)CNC(C)(C)C)c1 (racemic) [(±)-bupranolol, bupranolol]
- Pseudo-Hill coefficient [1, 5]: 1.08 ± 0.08
- Ki [1, 5]: 11.3 ± 0.8 µM
